From patent publication US20100317850A1 (priority 2008, published 2010)
pIC50: −log10 of the molar value.

Test system: Aβ42 production
Assay: Quantification of Aβ peptide in culture of neurons from rat fetus brain (Aβ ELISA)
Assay type: cell-based
Details: Neuron, 72 h; rat primary neuronal culture (cerebral cortex, embryonic day 18 Wistar rats); medium collected three days after addition of the compound; Aβx-42 ELISA; read-out: Aβ42 production reducing effect IC50
Method in brief: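 Primary cortical neurons from embryonic day 18 Wistar rats were cultured 4 days, then exposed to compound in Neurobasal/B27 without 2-ME, final DMSO ≤1%. After three days, medium was collected and Aβx-42 measured undiluted by sandwich ELISA.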

Compound | pIC50
NC1=N[C@@]2(c3cc(NC(=O)c4ncc(C(F)(F)F)cc4Cl)ccc3F)CCC[C@H]2CS1 (single isomer, unassigned) [Example 184, N-[3-((4aR*,7aS*)-2-amino-4a,5,6,7-tetrahydro-4H-cyclopenta[d][1,3]thiazin-7a-yl)-4-fluorophenyl]-3-chloro-5-trifluoromethyl-pyridine-2-carboxamide] | 7.89
NC1=N[C@@]2(c3cc(NC(=O)c4ncc(F)cc4F)ccc3F)COC[C@H]2CS1 (single isomer, unassigned) [Example 188, N-[3-((4aS*,7aS*)-2-amino-4a,5-dihydro-4H-furo[3,4-d][1,3]thiazin-7a-yl)-4-fluorophenyl]-3,5-difluoropyridine-2-carboxamide] | 7.66
NC1=N[C@@]2(c3cc(NC(=O)c4ccc5ccccc5n4)ccc3F)CCC[C@H]2CS1 [Example 139] | 6.77
NC1=N[C@@]2(c3cccc(-c4cccnc4F)c3)CN(C(=O)c3ccccc3)C[C@H]2CS1 [Example 82] | 6.37
N#Cc1ccc(C(=O)Nc2ccc(F)c([C@]34CC[C@H](F)C[C@H]3CSC(N)=N4)c2)nc1 (relative stereo) [Example 215, N-[3-((4aR*,6S*,8aS*)-2-amino-6-fluoro-4,4a,5,5,6,7,8-hexahydrobenzo[d][1,3]thiazin-8a-yl)-4-fluorophenyl]-5-cyanopyridine-2-carboxamide] | 8.00
NC1=N[C@@]2(c3cc(NC(=O)c4ccc(OC(F)F)cn4)ccc3F)CCO[C@H](CF)[C@H]2CS1 (relative stereo) [Example 147, N-[3-((4aS*,5S*,8aS*)-2-amino-5-fluoromethyl-4a,5,7,8-tetrahydro-4H-6-oxa-3-thia-1-azanaphthalen-8a-yl)-4-fluorophenyl]-5-difluoromethoxypyridine-2-carboxamide] | 7.92
N#Cc1cccc(-c2cccc([C@]34CN(c5cnccn5)C[C@H]3CSC(N)=N4)c2)c1 (racemic) [Example 229, (±)-3′44aR*,7aS*)-2-amino-6-pyrazin-2-yl-4a,5,6,7-tetrahydro-4H-pyrrolo[3,4-d][1,3]thiazin-7a-yl)biphenyl-3-carbonitrile] | 6.26
NC1=N[C@@]2(c3cc(NC(=O)c4ncccc4Br)ccc3F)CCCC[C@H]2CS1 [Example 260] | 6.77
NC1=N[C@@]2(c3cc(NC(=O)c4ccc(Cl)cn4)ccc3F)CCO[C@H](CF)[C@H]2CS1 (relative stereo) [Example 148, N-[3-((4aS*,5S*,8aS*)-2-amino-5-fluoromethyl-4a,5,7,8-tetrahydro-4H-6-oxa-3-thia-1-azanaphthalen-8a-yl)-4-fluorophenyl]-5-chloropyridine-2-carboxamide] | 8.05
NC1=N[C@@]2(c3cc(NC(=O)c4cnc(OCF)cn4)ccc3F)CCC[C@H]2CS1 (relative stereo) [Example 21, N-[3-((4aR*,7aS*)-2-amino-4a,5,6,7-tetrahydro-4H-cyclopenta[d][1,3]thiazin-7a-yl)-4-fluorophenyl]-5-fluoromethoxypyrazine-2-carboxamide] | 7.89
Cn1cc(-c2ccc(C(=O)Nc3ccc(F)c([C@]45CCC[C@H]4CSC(N)=N5)c3)nc2)cn1 [Example 239] | 6.62
NC1=N[C@@]2(c3cc(NC(=O)c4cnc(C(F)F)cn4)ccc3F)CO[C@H](CF)[C@H]2CS1 [Example 73, N-[3-((4aS,5S,7aS)-2-amino-5-fluoromethyl-4a,5-dihydro-4H-furo[3,4-d][1,3]thiazin-7a-yl)-4-fluorophenyl]-5-difluoromethylpyrazine-2-carboxamide] | 8.15
NC1=N[C@@]2(c3cc(NC(=O)c4ccc(C(F)(F)F)cn4)ccc3F)CCOC[C@H]2CS1 (single isomer, unassigned) [Example 186, N-[3-((4aS*,8aS*)-2-amino-4a,5,7,8-tetrahydro-4H-6-oxa-3-thia-1-azanaphthalen-8a-yl)-fluorophenyl]-5-trifluoromethylpyridine-2-carboxamide] | 7.52
NC1=N[C@@]2(c3cc(NC(=O)c4ccc(C(F)(F)F)cn4)ccc3F)COC[C@H]2CS1 (relative stereo) [Example 165, N-[3-((4aS*,7aS*)-2-amino-4a,5-dihydro-4H-furo[3,4-d][1,3]thiazin-7a-yl)-4-fluorophenyl]-5-trifluoromethylpyridine-2-carboxamide] | 7.92
CO[C@@H]1CC[C@]2(c3cc(NC(=O)c4ccc(C#N)cn4)ccc3F)N=C(N)SC[C@@H]2C1 (relative stereo) [Example 206, N-[3-((4aR*,6R*,8aS*)-2-amino-6-methoxy-4,4a,5,6,7,8-hexahydrobenzo[d][1,3]thiazin-8a-yl)-4-fluorophenyl]-5-cyanopyridine-2-carboxamide] | 8.70
NC1=N[C@@]2(c3cc(NC(=O)c4cnc(C(F)F)cn4)ccc3F)CCC[C@H]2CS1 (single isomer, unassigned) [Example 191, N-[3-((4aR*,7aS*)-2-amino-4a,5,6,7-tetrahydro-4H-cyclopenta[d][1,3]thiazin-7a-yl)-4-fluorophenyl]-5-difluoromethylpyrazine-2-carboxamide] | 8.05
NC1=N[C@@]2(c3cc(NC(=O)c4ccc(F)cn4)ccc3F)CCCC[C@H]2CS1 (single isomer, unassigned) [Example 256, N-[3-((4aR*,8aS*)-2-amino-4,4a,5,6,7,8-hexahydrobenzo[d][1,3]thiazin-8a-yl)-4-fluorophenyl]-5-fluoropyridine-2-carboxamide] | 7.42
COC[C@H]1OC[C@]2(c3cc(NC(=O)c4cnc(C(F)F)cn4)ccc3F)N=C(N)SC[C@H]12 [Example 68, N-[3-((4aS,5S,7aS)-2-amino-5-methoxymethyl-4a,5-dihydro-4H-furo[3,4-d][1,3]thiazin-7a-yl)-4-fluorophenyl]-5-difluoromethylpyrazine-2-carboxamide] | 8.22
NC1=N[C@@]2(c3cc(NC(=O)c4cnc(OC(F)F)cn4)ccc3F)COC[C@H]2CS1 (relative stereo) [Example 25, N-[3-((4aS*,7aS*)-2-amino-4a,5-dihydro-4H-furo[3,4-d][1,3]thiazin-7a-yl)-4-fluorophenyl]-5-difluoromethoxypyrazine-2-carboxamide] | 8.21
